Patent EP0112481A1, “Beta-lactam compound” (KYOWA HAKKO KOGYO CO., LTD, priority 1982, dated 1984)
In brackets after ≈: the same amount, converted by molar mass.

Assays:
Test in all cases: Antibacterial effect, dilution method on Mueller-Hinton agar
Assay type in all cases: cell-based
[1] = system: Citrobacter freundii F 1526; conditions: F1526, Mueller-Hinton agar (pH 7.0)
[2] = system: Escherichia coli NIHJJC-2; conditions: NIHJJC2, Mueller-Hinton agar (pH 7.0)
[3] = system: Staphylococcus aureus 209-P; conditions: Mueller-Hinton agar (pH 7.0)
Proteus mirabilis 1287 = conditions: Mueller-Hinton agar (pH 7.0)
[4] = system: Enterobacter cloacae F 1510; conditions: F1510, Mueller-Hinton agar (pH 7.0)
Proteus vulgaris 6897 = conditions: Mueller-Hinton agar (pH 7.0)
[5] = system: Krebsiella pneumoniae 8045; conditions: Mueller-Hinton agar (pH 7.0)
Serratia marcescens T-26 = conditions: T26, Mueller-Hinton agar (pH 7.0)

MIC [1] [µg/mL] | MIC [2] [µg/mL] | MIC [3] [µg/mL] | MIC (Proteus mirabilis 1287) [µg/mL] | MIC [4] [µg/mL] | MIC (Proteus vulgaris 6897) [µg/mL] | MIC [5] [µg/mL] | MIC (Serratia marcescens T-26) [µg/mL] | SMILES
0.2 (≈ 0.422 µM) | 0.01 (≈ 0.0211 µM) | 1.56 (≈ 3.29 µM) | 0.01 (≈ 0.0211 µM) | 0.2 (≈ 0.422 µM) | 0.01 (≈ 0.0211 µM) | 0.1 (≈ 0.211 µM) | 1.56 (≈ 3.29 µM) | CON=C(C(=O)NC1C(=O)N2C(C(=O)O)=C(C=Cc3nnnn3C)CCC12)c1csc(N)n1 (racemic) [Compound of Ref. Ex. 9, (±)-6,7-cis-7-[2-(2-aminothiazol-4-yl)-2-syn-methoxyiminoacetamido]-3-[2-(1-methyl-1H-tetrazol-5-yl)vinyl]-1-azabicyclo [4.2.0] oct-2-en-8-oxo-2-carboxylic acid]
0.78 (≈ 1.68 µM) | 0.2 (≈ 0.432 µM) | 6.25 (≈ 13.5 µM) | 0.1 (≈ 0.216 µM) | 1.56 (≈ 3.37 µM) | 0.01 (≈ 0.0216 µM) | 0.39 (≈ 0.841 µM) | 3.13 (≈ 6.75 µM) | CCOC(=O)C=CC1=C(C(=O)O)N2C(=O)C(NC(=O)C(=NOC)c3csc(N)n3)C2CC1 (racemic) [Compound of Ref. Ex. 10, (±)-6,7-cis-7-[2-(2-aminothiazol-4-yl)-2-syn-methoxyiminoacetamido]-3-(2-ethoxycarbonvlviayl)-1-azabicyclo [4.2.0]oct-2-en-8-oxo-2-carboxylic acid]
